PubChem BioAssay (NCI)
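Briefly, cells in 96-well plates were exposed to five compound concentrations for 48 h, and endpoints were estimated by linear interpolation. TGI denotes the concentration required for complete inhibition of growth.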 Where a SMILES comes first, the peptide text is derived from it. The star is where a group is joined. Boc = CC(C)(C)OC(=O)*

Columns and labels:
Assay in all cases: growth of human tumour cells (NCI), 48 h
ACHN renal = system: ACHN renal
A498 renal = system: A498 renal
HCC-2998 colon = system: HCC-2998 colon
OVCAR-4 ovarian = system: OVCAR-4 ovarian
SK-OV-3 ovarian = system: SK-OV-3 ovarian
SNB-75 CNS = system: SNB-75 CNS
SR leukemia = system: SR leukemia
SF-268 CNS = system: SF-268 CNS
U251 CNS = system: U251 CNS
EKVX NSCLC = system: EKVX NSCLC
COLO 205 colon = system: COLO 205 colon
SW-620 colon = system: SW-620 colon
SK-MEL-28 melanoma = system: SK-MEL-28 melanoma
M14 melanoma = system: M14 melanoma
SN12C renal = system: SN12C renal
OVCAR-5 ovarian = system: OVCAR-5 ovarian
BT-549 breast = system: BT-549 breast
HOP-92 NSCLC = system: HOP-92 NSCLC

Structure (SMILES) | TGI (ACHN renal) [µM] | TGI (A498 renal) [µM] | TGI (HCC-2998 colon) [µM] | TGI (OVCAR-4 ovarian) [µM] | TGI (SK-OV-3 ovarian) [µM] | TGI (SNB-75 CNS) [µM] | TGI (SR leukemia) [µM] | TGI (SF-268 CNS) [µM] | TGI (U251 CNS) [µM] | TGI (EKVX NSCLC) [µM] | TGI (COLO 205 colon) [µM] | TGI (SW-620 colon) [µM] | TGI (SK-MEL-28 melanoma) [µM] | TGI (M14 melanoma) [µM] | TGI (SN12C renal) [µM] | TGI (OVCAR-5 ovarian) [µM] | TGI (BT-549 breast) [µM] | TGI (HOP-92 NSCLC) [µM]
CC(=O)c1cc(CC2Cc3cc4c(cc3C2=O)CCC4)cc2c1CCC2 (stereo not drawn) | > 100 | > 100 | > 100 | > 100 | > 100 | > 100 | > 100 | > 100 | > 100 | > 100 | 76.2 | > 100 | > 100 | > 100 | > 100 | > 100 | > 100 | –
O=C(NC1CCN(Cc2ccccc2)CC1)c1cccc(I)c1 | > 100 | > 100 | – | > 100 | 42.8 | – | 80.3 | > 100 | 56.2 | > 100 | 32.5 | 30.9 | 37.4 | 30.9 | > 100 | > 100 | > 100 | 62.7
COc1ccc(C[n+]2cccc(O)c2)cc1 | > 100 | > 100 | > 100 | – | > 100 | – | > 100 | > 100 | > 100 | > 100 | – | > 100 | > 100 | > 100 | > 100 | > 100 | > 100 | > 100
CCOc1ccc(N2C(=O)NC3(c4ccccc4)N(C)C(=O)N(C)C23c2ccccc2)cc1 (stereo not drawn) | > 100 | > 100 | – | – | > 100 | 63.5 | > 100 | – | > 100 | > 100 | > 100 | > 100 | > 100 | > 100 | > 100 | > 100 | > 100 | > 100
Cc1n[nH]c(=O)n1Nc1ccccc1 | > 100 | – | > 100 | > 100 | > 100 | > 100 | > 100 | > 100 | > 100 | > 100 | > 100 | > 100 | > 100 | > 100 | > 100 | > 100 | > 100 | > 100
COc1ccc(C(=O)N2CCN(c3ccc4c(c3)OCC(=O)N4)CC2)cc1OC | > 100 | – | > 100 | > 100 | > 100 | > 100 | > 100 | > 100 | > 100 | > 100 | > 100 | > 100 | > 100 | > 100 | > 100 | > 100 | > 100 | > 100
CCOC(=O)c1cc(-c2ccc([N+](=O)[O-])cc2)c([N+](=O)[O-])[nH]1 | > 10 | – | > 10 | > 10 | > 10 | > 10 | > 10 | > 10 | > 10 | > 10 | – | – | – | > 10 | > 10 | > 10 | > 10 | 5.49
O=c1sc(Nc2ccc3ccccc3c2Cl)nc2ccccc12 | > 100 | – | > 100 | > 100 | > 100 | > 100 | > 100 | > 100 | > 100 | > 100 | > 100 | > 100 | > 100 | – | > 100 | > 100 | > 100 | > 100
NC1=NCC(CN2CCCCC2)O1 (stereo not drawn) | > 100 | – | – | – | > 100 | > 100 | > 100 | > 100 | > 100 | > 100 | > 100 | > 100 | > 100 | > 100 | > 100 | – | > 100 | –
CN1CN(c2ccccc2)C2(CCN(C3Nc4ccccc4O3)CC2)C1=O (stereo not drawn) | 55.9 | 42.1 | – | – | 48.1 | 62.3 | > 100 | 61 | 33.3 | – | 30.1 | > 100 | 47.2 | 46.2 | 34.7 | 48.2 | 37.3 | –
C=C[C@]1(C)CC(=O)C(C(C)C=O)[C@]12C(=O)Oc1cccc(C)c1C2=O (stereo partly drawn) | 29 | 71.1 | 31.7 | 35.5 | 33.1 | 30.8 | > 100 | 43.3 | 28.3 | 40.2 | 31.2 | 25.2 | 29.2 | 29.8 | 30.3 | 30.6 | 28.4 | –
CCN(CC)C(=S)/N=C(\SC(=S)N(CC)CC)c1ccccc1 | > 100 | > 100 | > 100 | > 100 | > 100 | > 100 | – | > 100 | > 100 | > 100 | 72.5 | > 100 | > 100 | > 100 | > 100 | > 100 | > 100 | > 100
COC(O)C(=O)c1c2c(cc3c1CCC3)CCC2 (stereo not drawn) | > 100 | > 100 | > 100 | > 100 | > 100 | > 100 | > 100 | > 100 | > 100 | > 100 | > 100 | > 100 | > 100 | > 100 | > 100 | > 100 | > 100 | –
Fc1ccc(Oc2nc3ccccc3nc2-c2ccccc2)cc1 | > 100 | > 100 | > 100 | > 100 | > 100 | – | > 100 | > 100 | > 100 | > 100 | > 100 | > 100 | > 100 | – | > 100 | > 100 | > 100 | > 100
Cc1cccc2c(N)c3cccc(C(=O)NCC[N+](C)(C)Cc4ccc(S(C)(=O)=O)cc4)c3nc12 | > 100 | 65 | > 100 | > 100 | > 100 | > 100 | – | > 100 | > 100 | > 100 | > 100 | > 100 | > 100 | > 100 | > 100 | > 100 | > 100 | > 100
CCOC(=O)c1cc(C2=CCNC2=O)c(-c2cc(C)no2)[nH]1 | > 100 | > 100 | > 100 | > 100 | > 100 | > 100 | > 100 | > 100 | > 100 | > 100 | > 100 | > 100 | > 100 | > 100 | > 100 | > 100 | > 100 | –
CC(=O)Nc1ncc2c(n1)-c1ccccc1OC2c1ccccc1 (stereo not drawn) | 28.2 | 51.6 | – | 85.5 | > 100 | 40.5 | > 100 | 63.5 | > 100 | > 100 | > 100 | > 100 | – | > 100 | > 100 | > 100 | > 100 | 41.4
Clc1cc2nc(C3CCCCO3)[nH]c2cc1Cl (stereo not drawn) | > 100 | – | 96.9 | > 100 | > 100 | 58.4 | > 100 | > 100 | > 96.7 | > 100 | > 100 | > 100 | > 100 | > 100 | > 100 | > 100 | 68.1 | > 100
COc1ccc(C(OC(=O)[C@H](O[Si](C)(C)C(C)(C)C)[C@@H](NC(=O)c2ccccc2)c2ccccc2)c2ccc(OC)cc2)cc1 | > 100 | > 100 | > 100 | > 100 | – | > 100 | > 100 | > 100 | > 100 | > 100 | > 100 | > 100 | – | – | > 100 | > 100 | > 100 | > 100
CC1(c2nc3ccccc3[nH]2)CCC(C#N)C(C)(C)O1 (stereo not drawn) | > 100 | – | > 100 | > 100 | > 100 | > 100 | > 100 | > 100 | > 100 | > 100 | > 100 | > 100 | > 100 | > 100 | > 100 | > 100 | > 100 | > 100
COc1ccc2nc3c(C)cc4ccccc4n3c2c1 | > 100 | 65.4 | > 100 | – | > 100 | > 100 | > 100 | > 100 | > 100 | > 100 | – | > 100 | > 100 | > 100 | > 100 | > 100 | > 100 | > 100
CC(=O)c1cc2c(s1)C(=O)c1ccsc1C2=O | 0.626 | 12.6 | 3.17 | 2.56 | 5.38 | 0.367 | – | 1.01 | 0.785 | 3.24 | 40.5 | 0.37 | 0.361 | 1.2 | 0.352 | 2.03 | 0.356 | 5.04
COc1ccc(-c2[nH]c(-c3ccc(OC)cc3)c(-c3ccccn3)c2-c2ccccn2)cc1 | > 100 | > 100 | 46.3 | – | > 100 | > 100 | > 100 | > 100 | > 100 | > 100 | 61.1 | > 100 | – | > 100 | > 100 | > 100 | 99.9 | > 100
CC1=NN(c2cccc(Cl)c2)C2(C1=Cc1cccs1)C(Cl)C(=O)N2c1nc2ccccc2s1 (stereo not drawn) | 50.6 | 43.5 | 35.3 | > 100 | – | 86.3 | 48.5 | 47.9 | 30.7 | 42.8 | – | > 100 | > 100 | > 100 | – | 41.9 | 49.4 | 52.7
CC(NC(=O)C1CCCN1C(=O)CNC(=O)OC(C)(C)C)C(=O)O (stereo not drawn) (Boc-Gly-Pro-Ala-OH; configuration not given here) | > 100 | – | > 100 | – | > 100 | > 100 | > 100 | > 100 | > 100 | > 100 | > 100 | > 100 | > 100 | > 100 | > 100 | > 100 | > 100 | > 100
Cc1occc1C(=S)Nc1ccc(Cl)c(C(=O)OCC(C)C)c1 | 43.2 | 30.4 | 35.3 | 39.2 | 42.4 | 29.4 | – | 42.5 | 35.9 | 31 | 39.9 | 45.8 | 32.3 | 65 | 36.3 | 88.1 | 33.2 | 34.1
Cc1nn(C(=O)c2ccc(Cl)cc2)c2c1C(c1ccccc1O)SC(N)=N2 (stereo not drawn) | > 10 | – | > 10 | > 10 | > 10 | > 10 | > 10 | > 10 | > 10 | > 10 | > 10 | > 10 | > 10 | > 10 | > 10 | > 10 | > 10 | > 10
Cc1ccc(C(=O)O)c(/C=C2\Cc3cc(C)cc(C)c3C2=O)c1 | > 100 | > 100 | > 100 | – | – | > 100 | > 100 | > 100 | > 100 | > 100 | – | > 100 | > 100 | – | > 100 | – | > 100 | –
Cc1cn(CC2=NC3CCCCC3N2)c(=O)[nH]c1=O (stereo not drawn) | > 100 | > 100 | > 100 | – | > 100 | > 100 | > 100 | > 100 | > 100 | > 100 | > 100 | > 100 | > 100 | > 100 | > 100 | > 100 | > 100 | > 100
